Our source for the TGI and GI50 values is PubChem BioAssay (NCI).

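A five-concentration, 48-hour dose response in 96-well plates underlies each endpoint, interpolated linearly between surrounding concentrations. At the GI50, growth is halved. At the TGI there is no net growth.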

The first experiment relates to SR leukemia. The experiment is described as follows: growth of human tumour cells (NCI), 48 h.
On to `COc1ccc(COCCOCc2nc(C#N)c(N)o2)cc1`, for which the TGI was more than 100 µM.

The test system of a further experiment is SN12C renal. Kind of experiment: growth of human tumour cells (NCI), 48 h.
Molecule `CC(C)(C)OC(=O)N[C@H]1CCN(C2CCCCC2)C1=O` gave a TGI of more than 100 µM.
`CC(=O)NC(Cc1ccc(O)cc1)C(=O)O` (stereo not drawn) registered a TGI of more than 100 µM.
`O=C(NC(=O)c1ccccc1[N+](=O)[O-])Nc1ccc(Oc2ncc(Br)cn2)c(Cl)c1`: the GI50 was less than 0.027 µM.
In the case of `CC[C@@H]1CC[C@@H]2[C@H](CC[C@]3(C)[C@@H](OC(C)=O)CC[C@@H]23)[C@H]1COC(C)=O`, the TGI was found to be 60.9 µM.
`CC(=O)O[C@@H]1[C@H](C(C)C)[C@@H](OC(C)=O)C/C(C)=C/CC[C@]2(C)O[C@@H]12` gave a TGI of more than 100 µM.
On to `C[C@@H]1CC[C@]2(C(=O)O)CC[C@]3(C)C(=CC[C@@H]4[C@@]5(C)CC[C@H](O)C(C)(C)[C@@H]5CC[C@]43C)[C@@H]2[C@]1(C)O`, for which the TGI came out at 30.1 µM.
For `CC(C)=CCc1c2c(c3occ(-c4ccc(O)cc4)c(=O)c3c1O)CC(C(C)(C)O)O2` (stereo not drawn), the TGI is 38.5 µM.
Same read-out and setting: the same measure for `Nc1nc(Cl)cc(NCC2(CO)CC(=O)C2)n1`: more than 100 µM.
Molecule `O=C(N/N=C(/COc1ccc(Cl)cc1)N=Cc1ccncc1)c1ccncc1` came in with a TGI of more than 100 µM.
The molecule `C1CN(c2nc3c(nnc4nc(N5CCOCC5)sc43)s2)CCO1` had a TGI of more than 100 µM.
`COc1cc2nc3n(c(=O)c2cc1OC)-c1ccc([N+](=O)[O-])cc1C3=O` yielded a TGI of more than 100 µM.
On the same count and under the same terms, as for `c1ccc(N=c2sc3ccccc3nc2Nc2ccccc2)cc1`, the figure is more than 100 µM; as for `CCC(C(=O)O)c1ccc(OC)cc1` (stereo not drawn), more than 100 µM; as for `COCO[C@@H]1C[C@H]2C(=O)Nc3ccccc3C(=O)N2C1`, more than 100 µM.
In turn, `CC(C)CCS(=O)(=O)OCCCCOS(=O)(=O)CCC(C)C` came in with a TGI of more than 100 µM.
With `CCCCC#C[I+]c1ccccc1`, the TGI came out at 28.3 µM.
In the case of `O=[N+]([O-])c1ccc2c(c1)c(OCc1ccccc1)nn2Cc1ccccc1`, the TGI is more than 100 µM.
Same read-out and setting: the same measure for `O=C1CCCc2cc3c(cc21)CC1(Cc2ccccc2C1)C3`: 41 µM; for `O=C1/C(=C/c2ccccc2)N=C2Sc3c(nc[nH]c3=O)N12`: more than 100 µM; for `CCOC(=O)C1(C/C=C/CBr)Cc2ccccc2C1=O` (stereo not drawn): 6.41 µM.
Still for that read-out and setting: the same measure for `COc1ccc(-c2c(C#N)c(-c3ccc(C)cc3)n(NS(=O)(=O)c3ccc(C)cc3)c(=O)c2C#N)cc1`: more than 100 µM.
The molecule `COc1ccc(COCCOCc2nc(C#N)c(N)o2)cc1` yielded a TGI of more than 100 µM.
In turn, `Cc1c(O)c(O)cc[n+]1C1OC(CO)C(O)C1O` (stereo not drawn) gave a TGI of more than 100 µM.

For the next experiment, the system named is DU-145 prostate. The experiment is described as follows: growth of human tumour cells (NCI), 48 h.
`CC(C)(C)OC(=O)N[C@H]1CCN(C2CCCCC2)C1=O`: the TGI was more than 100 µM.
In turn, `CC(=O)NC(Cc1ccc(O)cc1)C(=O)O` (stereo not drawn) showed a TGI of more than 100 µM.
Molecule `O=C(NC(=O)c1ccccc1[N+](=O)[O-])Nc1ccc(Oc2ncc(Br)cn2)c(Cl)c1` yielded a TGI of 0.0902 µM.
In the case of `CC[C@@H]1CC[C@@H]2[C@H](CC[C@]3(C)[C@@H](OC(C)=O)CC[C@@H]23)[C@H]1COC(C)=O`, the TGI is more than 100 µM.
`CC(=O)O[C@@H]1[C@H](C(C)C)[C@@H](OC(C)=O)C/C(C)=C/CC[C@]2(C)O[C@@H]12`: the TGI is more than 100 µM.
In the case of `C[C@@H]1CC[C@]2(C(=O)O)CC[C@]3(C)C(=CC[C@@H]4[C@@]5(C)CC[C@H](O)C(C)(C)[C@@H]5CC[C@]43C)[C@@H]2[C@]1(C)O`, the TGI amounted to 21.1 µM.
On the same count and under the same terms, the same measure for `CC(C)=CCc1c2c(c3occ(-c4ccc(O)cc4)c(=O)c3c1O)CC(C(C)(C)O)O2` (stereo not drawn): 29.4 µM.
Same read-out and setting: the same measure for `Nc1nc(Cl)cc(NCC2(CO)CC(=O)C2)n1`: more than 100 µM; for `O=C(N/N=C(/COc1ccc(Cl)cc1)N=Cc1ccncc1)c1ccncc1`: more than 100 µM.
`C1CN(c2nc3c(nnc4nc(N5CCOCC5)sc43)s2)CCO1` returned a TGI of more than 100 µM.
Molecule `COc1cc2nc3n(c(=O)c2cc1OC)-c1ccc([N+](=O)[O-])cc1C3=O` came in with a TGI of more than 100 µM.
Regarding `c1ccc(N=c2sc3ccccc3nc2Nc2ccccc2)cc1`, the TGI was more than 100 µM.
In turn, `COCO[C@@H]1C[C@H]2C(=O)Nc3ccccc3C(=O)N2C1` had a TGI of more than 100 µM.
The molecule `O=[N+]([O-])c1ccc2c(c1)c(OCc1ccccc1)nn2Cc1ccccc1` showed a TGI of more than 100 µM.
Molecule `O=C1/C(=C/c2ccccc2)N=C2Sc3c(nc[nH]c3=O)N12` came in with a TGI of more than 100 µM.
The molecule `CCOC(=O)c1cn2c(n1)sc1cccc(C)c12` had a TGI of more than 100 µM.
`CCOC(=O)C1(C/C=C/CBr)Cc2ccccc2C1=O` (stereo not drawn) yielded a TGI of 28.3 µM.
Turning to `COc1ccc(COCCOCc2nc(C#N)c(N)o2)cc1`, the TGI was more than 100 µM.

The subject of another experiment is ACHN renal. Kind of experiment: growth of human tumour cells (NCI), 48 h.
For `CC(C)(C)OC(=O)N[C@H]1CCN(C2CCCCC2)C1=O`, the TGI is more than 100 µM.
The same measure, in the same setting: the same measure for `CC(=O)NC(Cc1ccc(O)cc1)C(=O)O` (stereo not drawn): more than 100 µM.
As for `O=C(NC(=O)c1ccccc1[N+](=O)[O-])Nc1ccc(Oc2ncc(Br)cn2)c(Cl)c1`, the TGI was determined as 0.0688 µM.
In turn, `CC[C@@H]1CC[C@@H]2[C@H](CC[C@]3(C)[C@@H](OC(C)=O)CC[C@@H]23)[C@H]1COC(C)=O` came in with a TGI of more than 100 µM.
As for `CC(=O)O[C@@H]1[C@H](C(C)C)[C@@H](OC(C)=O)C/C(C)=C/CC[C@]2(C)O[C@@H]12`, the TGI is more than 100 µM.
Turning to `C[C@@H]1CC[C@]2(C(=O)O)CC[C@]3(C)C(=CC[C@@H]4[C@@]5(C)CC[C@H](O)C(C)(C)[C@@H]5CC[C@]43C)[C@@H]2[C@]1(C)O`, the TGI was 30.4 µM.
On to `CC(C)=CCc1c2c(c3occ(-c4ccc(O)cc4)c(=O)c3c1O)CC(C(C)(C)O)O2` (stereo not drawn), for which the TGI came to 28 µM.
Still for that read-out and setting: as for `Nc1nc(Cl)cc(NCC2(CO)CC(=O)C2)n1`, the figure is more than 100 µM; as for `O=C(N/N=C(/COc1ccc(Cl)cc1)N=Cc1ccncc1)c1ccncc1`, more than 100 µM.
As for `C1CN(c2nc3c(nnc4nc(N5CCOCC5)sc43)s2)CCO1`, the TGI is more than 100 µM.
Turning to `COc1cc2nc3n(c(=O)c2cc1OC)-c1ccc([N+](=O)[O-])cc1C3=O`, the TGI is more than 100 µM.
As for `c1ccc(N=c2sc3ccccc3nc2Nc2ccccc2)cc1`, the TGI was more than 100 µM.
The molecule `CCC(C(=O)O)c1ccc(OC)cc1` (stereo not drawn) registered a TGI of more than 100 µM.
In turn, `COCO[C@@H]1C[C@H]2C(=O)Nc3ccccc3C(=O)N2C1` came in with a TGI of more than 100 µM.
On to `CC1CCC(n2c3cnccc3c3cnc(Nc4ccc5c(n4)CCN(C(=O)CO)C5)nc32)CC1` (stereo not drawn), for which the GI50 is 0.469 µM and the TGI was more than 100 µM.
Take `CC(C)CCS(=O)(=O)OCCCCOS(=O)(=O)CCC(C)C`: the TGI is more than 100 µM.
On the same count and under the same terms, as for `CCCCC#C[I+]c1ccccc1`, the figure is 30.9 µM.
Still for that read-out and setting: the same measure for `O=[N+]([O-])c1ccc2c(c1)c(OCc1ccccc1)nn2Cc1ccccc1`: more than 100 µM; for `O=C1CCCc2cc3c(cc21)CC1(Cc2ccccc2C1)C3`: 32.9 µM.
Molecule `O=C1/C(=C/c2ccccc2)N=C2Sc3c(nc[nH]c3=O)N12` had a TGI of more than 100 µM.
As for `CCOC(=O)c1cn2c(n1)sc1cccc(C)c12`, the TGI was more than 100 µM.
As to `CCOC(=O)C1(C/C=C/CBr)Cc2ccccc2C1=O` (stereo not drawn), the TGI is 7.19 µM.
`COc1ccc(-c2c(C#N)c(-c3ccc(C)cc3)n(NS(=O)(=O)c3ccc(C)cc3)c(=O)c2C#N)cc1` displayed a TGI of more than 100 µM.
On the same count and under the same terms, as for `COc1ccc(COCCOCc2nc(C#N)c(N)o2)cc1`, the figure is more than 100 µM; as for `Cc1c(O)c(O)cc[n+]1C1OC(CO)C(O)C1O` (stereo not drawn), more than 100 µM.
